Laboratory results reported in paper PMC7062870 (Experimental & Molecular Medicine, 2020).

Target: T1, fascin1 (Homo sapiens, UniProt Q16658)
T1 construct: gene FSCN1; commercial purified fascin1 (Hypermol)
Test: F-actin bundling, low-speed cosedimentation
Type: biochemical
Settings: 1 µM fascin1; 10 µM F-actin

## CN(C)CCCN1c2ccccc2CCc2ccccc21 [imipramine]
  F-actin bundling, low-speed cosedimentation: upon imipramine addition, the F-actin pellet fraction significantly diminished in favor of the supernatant
